# Measurements: ChEMBL document CHEMBL5143583, “Discovery of pyrroledione analogs as potent transient receptor potential canonical channel 5 inhibitors” (Bioorg Med Chem Lett, 2022)
# Active and inactive are the calls of the source. No cut-off for these calls is given here.
# Assays:
# [1] = target: T1, Short transient receptor potential channel 5 (Homo sapiens, UniProt Q9UL62); experiment: Inhibition of TRPC5 channel (unknown origin) expressed in HEK293 cells assessed as inhibition of EA-evoked Ca2+ entry by measuring reduction in intracellular Ca2+ level by Fluo-4 dye based FLIPR assay; assay type: cell-based
# T1 sequence (Q9UL62 whole entry): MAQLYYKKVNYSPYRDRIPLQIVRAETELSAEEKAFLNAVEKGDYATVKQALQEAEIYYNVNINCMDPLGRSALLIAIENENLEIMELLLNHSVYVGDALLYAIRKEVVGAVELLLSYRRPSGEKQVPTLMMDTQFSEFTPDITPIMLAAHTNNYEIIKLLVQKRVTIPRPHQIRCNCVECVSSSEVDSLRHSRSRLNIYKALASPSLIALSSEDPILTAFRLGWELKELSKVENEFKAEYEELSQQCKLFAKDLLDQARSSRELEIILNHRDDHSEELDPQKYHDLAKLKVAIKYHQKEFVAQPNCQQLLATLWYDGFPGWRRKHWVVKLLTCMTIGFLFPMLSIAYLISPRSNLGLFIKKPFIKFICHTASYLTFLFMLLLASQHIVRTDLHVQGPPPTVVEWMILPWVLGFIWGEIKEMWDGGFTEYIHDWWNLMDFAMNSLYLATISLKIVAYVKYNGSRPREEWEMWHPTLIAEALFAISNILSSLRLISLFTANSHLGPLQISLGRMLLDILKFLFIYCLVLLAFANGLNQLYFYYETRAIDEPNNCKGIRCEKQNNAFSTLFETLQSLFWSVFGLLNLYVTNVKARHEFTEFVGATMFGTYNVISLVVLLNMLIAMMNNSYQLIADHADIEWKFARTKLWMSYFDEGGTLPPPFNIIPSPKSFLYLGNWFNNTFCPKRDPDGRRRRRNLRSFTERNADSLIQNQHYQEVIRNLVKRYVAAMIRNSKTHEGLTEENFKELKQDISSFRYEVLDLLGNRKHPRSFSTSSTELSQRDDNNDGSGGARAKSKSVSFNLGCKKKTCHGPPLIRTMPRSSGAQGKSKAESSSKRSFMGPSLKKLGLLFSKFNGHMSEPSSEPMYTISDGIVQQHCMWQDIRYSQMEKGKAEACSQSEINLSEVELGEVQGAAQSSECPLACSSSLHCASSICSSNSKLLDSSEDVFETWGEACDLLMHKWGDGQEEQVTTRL
# Hepatocyte = experiment: Cytotoxicity against primary mouse hepatocytes assessed as reduction in cell viability at 1 to 10 uM by MTT assay; assay type: toxicity, cell-based; conditions: dose 1-10 µM
# [2] = target: T2, Short transient receptor potential channel 4 (Homo sapiens, UniProt Q9UBN4); experiment: (§1) Inhibition of TRPC4 channel (unknown origin) expressed in HEK293 cells assessed as inhibition of EA-evoked Ca2+ entry by measuring reduction in intracellular Ca2+ level by Fluo-4 dye based FLIPR assay; assay type: cell-based
# T2 sequence (Q9UBN4 whole entry): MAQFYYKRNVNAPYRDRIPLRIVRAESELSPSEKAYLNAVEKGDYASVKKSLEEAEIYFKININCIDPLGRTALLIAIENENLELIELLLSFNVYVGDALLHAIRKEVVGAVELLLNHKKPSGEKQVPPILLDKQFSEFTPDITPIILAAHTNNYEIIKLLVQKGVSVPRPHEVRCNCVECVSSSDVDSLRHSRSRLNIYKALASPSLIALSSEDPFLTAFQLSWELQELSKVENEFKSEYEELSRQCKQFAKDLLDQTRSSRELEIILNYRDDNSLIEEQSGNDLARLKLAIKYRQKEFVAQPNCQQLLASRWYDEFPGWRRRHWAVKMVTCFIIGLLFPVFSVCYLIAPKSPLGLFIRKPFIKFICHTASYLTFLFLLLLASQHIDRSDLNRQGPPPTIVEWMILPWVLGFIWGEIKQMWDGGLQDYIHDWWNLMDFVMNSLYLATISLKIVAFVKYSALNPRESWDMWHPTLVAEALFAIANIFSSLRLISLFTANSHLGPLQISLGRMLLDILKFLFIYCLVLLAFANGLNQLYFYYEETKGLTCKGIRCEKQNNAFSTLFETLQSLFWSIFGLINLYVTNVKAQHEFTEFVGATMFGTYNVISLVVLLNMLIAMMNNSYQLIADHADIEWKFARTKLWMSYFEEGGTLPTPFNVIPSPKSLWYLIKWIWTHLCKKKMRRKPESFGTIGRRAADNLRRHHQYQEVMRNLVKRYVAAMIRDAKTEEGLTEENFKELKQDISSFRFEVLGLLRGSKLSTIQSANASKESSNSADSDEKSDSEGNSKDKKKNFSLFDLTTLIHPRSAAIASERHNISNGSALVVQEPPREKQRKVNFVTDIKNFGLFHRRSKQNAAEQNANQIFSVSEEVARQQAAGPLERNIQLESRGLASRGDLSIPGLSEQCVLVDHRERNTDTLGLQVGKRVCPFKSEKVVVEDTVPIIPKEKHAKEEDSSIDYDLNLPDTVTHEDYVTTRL
# [3] = target: T3, Short transient receptor potential channel 4 (Homo sapiens) (UniProt Q9UBN4); experiment: as §1; assay type: cell-based; conditions: DDE = dose-dependent effect
# T3 sequence (whole entry): T2 sequence (Q9UBN4 whole entry)
# [4] = Cytotoxicity against mouse MPC5 cells assessed as reduction in cell viability at 1 to 10 uM by MTT assay; assay type: toxicity, cell-based; conditions: mpc-5, 10 µM, dose 1-10 µM
# MPC-5 = experiment: Reno-protectant activity against protamine sulfate-induced podocytes injury in mouse MPC5 cells assessed as reduction in PS-induced podocytes rearrangement and rupture of stress fibers at 0.1 to 3 uM pretreated for 30 mins followed by stimulation with PS for 100 mins; assay type: functional, cell-based; conditions: dose 0.1-3 µM, time 130.0 min, DDE = dose-dependent effect
# [5] = target: T1, Short transient receptor potential channel 5; experiment: Inhibition of human TRPC5 channel expressed in HEK293 cells assessed as inhibition of EA-evoked channel current measured at +80 mV by whole-cell voltage clamp assay; assay type: cell-based
# [6] = target: T4, Short transient receptor potential channel 3 (Homo sapiens) (UniProt Q13507); experiment: Inhibition of human TRPC3 channel expressed in HEK293 cells assessed as inhibition of OAG-evoked Ca2+ entry by measuring reduction in intracellular Ca2+ level by Fluo-4 dye based FLIPR assay; assay type: cell-based
# T4 sequence (whole entry): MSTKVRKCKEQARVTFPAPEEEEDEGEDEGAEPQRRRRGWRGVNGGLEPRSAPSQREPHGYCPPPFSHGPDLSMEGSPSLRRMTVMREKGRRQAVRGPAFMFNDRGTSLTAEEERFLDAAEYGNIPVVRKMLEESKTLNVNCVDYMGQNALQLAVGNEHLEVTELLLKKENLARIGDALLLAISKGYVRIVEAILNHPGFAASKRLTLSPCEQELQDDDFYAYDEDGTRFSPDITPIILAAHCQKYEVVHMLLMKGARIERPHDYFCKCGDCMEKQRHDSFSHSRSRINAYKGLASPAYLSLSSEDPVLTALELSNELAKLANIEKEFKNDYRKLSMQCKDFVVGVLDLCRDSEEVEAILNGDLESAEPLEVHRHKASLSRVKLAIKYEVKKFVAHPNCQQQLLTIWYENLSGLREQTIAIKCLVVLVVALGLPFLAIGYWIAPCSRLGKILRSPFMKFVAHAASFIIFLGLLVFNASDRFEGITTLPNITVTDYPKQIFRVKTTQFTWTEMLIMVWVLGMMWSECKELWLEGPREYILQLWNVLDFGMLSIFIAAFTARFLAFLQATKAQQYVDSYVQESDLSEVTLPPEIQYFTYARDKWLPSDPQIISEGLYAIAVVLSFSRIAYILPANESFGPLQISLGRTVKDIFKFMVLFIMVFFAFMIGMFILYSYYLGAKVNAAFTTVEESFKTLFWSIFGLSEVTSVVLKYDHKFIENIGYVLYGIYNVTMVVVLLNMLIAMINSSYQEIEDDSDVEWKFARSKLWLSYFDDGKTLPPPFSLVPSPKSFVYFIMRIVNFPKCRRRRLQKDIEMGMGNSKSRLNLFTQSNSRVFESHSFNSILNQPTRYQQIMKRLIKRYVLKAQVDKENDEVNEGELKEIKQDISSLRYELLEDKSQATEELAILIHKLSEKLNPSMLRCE
SMILES,IC50 [1] [nM],other results
O=C1CN(c2cc(=O)[nH]c(=O)[nH]2)CCN1Cc1ccccc1C(F)(F)F,> 10000,
O=C1NC(=O)C(N2CCc3ncn(Cc4ccccc4C(F)(F)F)c3C2)=C1Cl,860,
O=C1NC(=O)C(N2CCc3c(ncnc3Oc3cccc(C(F)(F)F)c3)C2)=C1Cl,> 10000,
O=C1CN(c2cc(=O)[nH]cn2)CCN1Cc1ccccc1C(F)(F)F,> 10000,
O=C(CC1CN(c2cn[nH]c(=O)c2Cl)C1)NCc1ccccc1C(F)(F)F,> 10000,
O=C1NC(=O)C(N2CCc3c(ncnc3Oc3ccc(F)cc3C3CC3)C2)=C1Cl,111,
Cn1c(N2CCN(Cc3ccccc3C(F)(F)F)C(=O)C2)cc(=O)n(C)c1=O,> 10000,
O=C1NC(=O)C(N2CCc3c(ncnc3Oc3ccc(Cl)cc3C(F)(F)F)C2)=C1Cl,314,
CN(Cc1ccccc1C(F)(F)F)C(=O)C1CN(c2cn[nH]c(=O)c2Cl)C1,> 10000,
N#Cc1cc(F)ccc1Oc1ncnc2c1CCN(C1=C(Cl)C(=O)NC1=O)C2,664,
O=C1CN(c2cn[nH]c(=O)c2)CCN1Cc1ccccc1C(F)(F)F,> 10000,
CCc1ccccc1Oc1ncnc2c1CCN(C1=C(Cl)C(=O)NC1=O)C2,1070,
CN(CC(=O)NCc1ccccc1C(F)(F)F)c1cn[nH]c(=O)c1Cl,> 10000,
O=C(NCc1ccccc1C(F)(F)F)C1CN(c2cn[nH]c(=O)c2Cl)C1,> 10000,
O=C1NC(=O)C(N2CCc3c(cnn3Cc3ccccc3C(F)(F)F)C2)=C1Cl,955,
O=C1NC(=O)C(N2CCc3c(ncnc3Oc3ccc(C(F)(F)F)cc3)C2)=C1Cl,> 10000,
Cn1ncc(N2CCN(Cc3ccccc3C(F)(F)F)C(=O)C2)c(Cl)c1=O,> 10000,

SMILES,IC50 [1] [nM],other results
O=C1NC(=O)C(N2CCc3c(nc(C4CC4)nc3Oc3ccc(F)cc3C(F)(F)F)C2)=C1Cl,2080,
O=C1NC(=O)C(N2CCc3c(ncnc3Oc3ccc(F)cc3C(F)(F)F)C2)=C1Cl,60,Activity (Hepatocyte): Non-Toxic; IC50 [2]: 65 nM; inhibition [3]: Dde; Activity [4]: Non-Toxic; Activity (MPC-5): Dde; IC50 [5]: 14.1 nM; inhibition [6]: Active
O=C1NC(=O)C(N2CCc3c(ncnc3Oc3ccc(F)cc3C3CCCC3)C2)=C1Cl,> 10000,
O=C1NC(=O)C(N2CCN(Cc3ccccc3C(F)(F)F)C(=O)C2)=C1Cl,10400,
CCc1nc2c(c(Oc3ccc(F)cc3C(F)(F)F)n1)CCN(C1=C(Cl)C(=O)NC1=O)C2,798,
O=C1NC(=O)C(N2CCc3c(ncnc3Oc3ccccc3Cl)C2)=C1Cl,654,
O=C1NC(=O)C(N2CCc3c(ncnc3Oc3ccc(F)cc3C3CCC3)C2)=C1Cl,> 10000,
O=C1CN(c2cn[nH]c(=O)c2Cl)CCN1Cc1ccccc1C(F)(F)F,211,Activity (Hepatocyte): Non-Toxic; Activity [4]: Non-Toxic; Activity (MPC-5): Dde; IC50 [5]: 50.1 nM
O=C1NC(=O)C(N2CCc3c(ncnc3Oc3ccc(F)cc3CC(F)(F)F)C2)=C1Cl,2540,
O=C1NC(=O)C(N2CCc3c(ncnc3Oc3ccccc3C(F)(F)F)C2)=C1Cl,452,
C#Cc1cc(F)ccc1Oc1ncnc2c1CCN(C1=C(Cl)C(=O)NC1=O)C2,629,
O=C1NC(=O)C(N2CCc3c(ncnc3Oc3ccc(F)cc3Cl)C2)=C1Cl,280,
Cn1c(N2CCN(Cc3ccccc3C(F)(F)F)C(=O)C2)cc(=O)[nH]c1=O,> 10000,
Cc1nc2c(c(Oc3ccc(F)cc3C(F)(F)F)n1)CCN(C1=C(Cl)C(=O)NC1=O)C2,125,
O=C1CN(c2cn[nH]c(=O)c2Cl)CN1Cc1ccccc1C(F)(F)F,> 10000,
Cc1cc(F)ccc1Oc1ncnc2c1CCN(C1=C(Cl)C(=O)NC1=O)C2,> 10000,
O=C1NC(=O)C(N2CCc3c(ncnc3Oc3c(F)cccc3C(F)(F)F)C2)=C1Cl,776,
